{"source": "patent US20050238740A1", "about": "“Use of mastic and its components for the control of microbial infections” (priority 2002, published 2005)", "assay_in_all_cases": "MTT cytotoxic/cytostatic activity, 48 hours exposure", "assay_type_in_all_cases": "cell-based", "key": {"[1]": {"test_system": "human epidermoid carcinoma A431", "conditions": "for IC50: Homo sapiens, A-431", "method": "(§1) Three extracts derived from Pistacia lentiscus var. Chia were tested for their cytotoxic/cytostatic activity against three established cancer cell lines, i.e human mammary adenocarcinoma MCF-7, human colon adenocarcinoma HT-29, and human epidermoid carcinoma A431. A modification of the MTT method (Denizot and Lang, 1986, J Immunol Meth 89, 271) was used for the assessment of cytotoxicity. Briefly, exponentially growing cells were exposed to varying concentrations of the test compounds (or control medium) for 48 hours. Then, the medium was replaced with MTT [3-(4,5-dimethylthiazol-2-yl)-2,5-diphenyltetrazolium bromide] for a further 4 -hour incubation. Finally, the MTT-formazan was solubilized in isopropanol and the optical density was measured at a wavelength of 550 nm and a reference wavelength of 690 nm. A representative example of the semi-log inhibition curves obtained after exposure of A43 1 cells to the three Pistacia lentiscus extracts is illustrated in FIG. 2.\nThe inhibition curves were used to determine the IC50 of each extract, i.e. the concentration that produced a 50% reduction of the absorbance relative to the absorbance of the control culture. The average IC50s of each extract for each cell line, after at least three independent trials, are presented in the following table (5-fluorouracil a classical chemotherapeutic agent, was included as a positive control in the case of A431 epidermoid carcinoma cells):\nWe used the methodology of MTT (see Example 6), using A431 cells. The average IC50s of each compound, after at least three independent trials, are presented in the following table (the data of the previous report regarding A431 cells are included in the table for reasons of comparison):\nThe neutral extract of the essential oil and two of the isolated ingredients, i.e. isomasticadienolic acid, and oleanonic acid were tested for […] activity using the methodology of MTT (Example 7) and three established human cancer cell lines."}, "[2]": {"test_system": "human lung carcinoma A549", "conditions": "two independent trials, essential oil dissolved in absolute ethanol (Table 11)"}, "[3]": {"test_system": "human colon adenocarcinoma HT-29", "conditions": "two independent trials, essential oil dissolved in absolute ethanol (Table 11)", "method": "as §1\nThe inhibition curves were used to determine the IC50 of each extract, i.e. the concentration that produced a 50% reduction of the absorbance relative to the absorbance of the control culture. […]"}, "[4]": {"conditions": "A431, at least three independent trials (Table 10), read-out: IC50, inhibition of A431 cancer cell proliferation"}}, "note": "Several values for one entry are separate records, joined by “and”; a condition that tells them apart may be missing. Equal values may be shown once. Read-outs that look alike come from different tables or passages of the source.", "data": [{"smiles": "O=c1[nH]cc(F)c(=O)[nH]1", "note": "[5-fluorouracil, reference compound]", "values": [{"measurement": "IC50", "setting": "[1]; [4]", "value": "2.25 µg/mL and 17.3 µM"}, {"measurement": "IC50", "setting": "[1]; Epidermoid carcinoma A431, 48 hours, at least three independent trials (Table 9), read-out: IC50, inhibition of cancer cell proliferation", "value": 2.25, "unit": "µg/mL"}]}, {"smiles": "CC1(C)CC[C@]2(C(=O)O)CC[C@]3(C)C(=CC[C@@H]4[C@@]5(C)CCC(=O)C(C)(C)[C@@H]5CC[C@]43C)[C@@H]2C1", "note": "[oleanonic, oleanonic acid]", "values": [{"measurement": "IC50", "setting": "[1]; [4]", "value": "17.5 µg/mL and 38.3 µM"}, {"measurement": "IC50", "setting": "[1]; Epidermoid carcinoma A431, two independent trials, essential oil dissolved in absolute ethanol (Table 11), read-out: average IC50", "value": 45, "unit": "µg/mL"}, {"measurement": "IC50", "setting": "[2]; Homo sapiens", "value": 110, "unit": "µg/mL"}, {"measurement": "IC50", "setting": "[3]; Homo sapiens", "value": 105, "unit": "µg/mL"}]}, {"smiles": "C/C(=C/CC[C@H](C)[C@@H]1CC[C@]2(C)C3=C(CC[C@@]12C)[C@@]1(C)CC[C@H](O)C(C)(C)[C@@H]1CC3)C(=O)O", "note": "[Isomasticadienolic, isomasticadienolic acid]", "values": [{"measurement": "average IC50", "setting": "[1]; Epidermoid carcinoma A431, two independent trials, essential oil dissolved in absolute ethanol (Table 11)", "value": "25 (±5) μg/mL"}, {"measurement": "average IC50", "setting": "[2]", "value": "95 (±5) μg/mL"}, {"measurement": "average IC50", "setting": "[3]", "value": "95 (±5) μg/mL"}]}, {"smiles": "CC1(C)C=C2[C@H]3CC[C@@H]4[C@@]5(C)CCC(=O)C(C)(C)[C@@H]5CC[C@@]4(C)[C@]3(C)CC[C@@]2(C(=O)O)CC1", "note": "[moronic, moronic acid]", "values": [{"measurement": "IC50", "setting": "[1]; [4]", "value": "47.7 µg/mL and 105 µM"}]}]}
